Patent US20230416329A1, “A PEPTIDE WITH DISULFIDE BONDS AND INHIBITORY ACTIVITY AGAINST SERINE PROTEASES, DERIVED HYBRID PEPTIDES THEREOF, AND USES THEREOF” (INSTITUTE OF MATERIA MEDICA , CHINESE ACADEMY OF MEDICAL …, priority 2020, published 2023)
Blank lines part the entries; values can stand above or below the compound they belong to. Bridge positions count the residues as written; N and C are the ends. Square brackets hold non-standard residues; d marks the D form. Peptide text beside a SMILES is read from it. Hyp = O=C(O)[C@@H]1C[C@@H](O)CN1

Tests used:
DPP-IV = DPP-IV (Homo sapiens, UniProt P27487); test: Tolerance of GLP-1 and its analogues to DPP-IV (RP-HPLC remaining peak area); assay type: in vitro ADME; settings: peptide 25 μM, DPP-IV 0.5 ng/μL, 37° C.
Procedure: (§1) Mix by centrifugation at 8000 rpm for 30 seconds.
(2) Arrange a certain volume of 0.005 μg/μL DPP-IV solution in another sterile EP.

chymotrypsin = chymotrypsin (Bos taurus, UniProt P00766); test: in vitro; settings: isolated enzyme chymotrypsin, pH 7.8, Remaining peak area (%)/chymotrypsin
Procedure: FIG. 18. […] At different time point, 25 μL aliquots was taken out, and 10% (v/v) TFA was added to terminate the reaction.
as §1
Arrange a certain volume of 0.05 μg/μL chymotrypsin solution in another sterile EP. Incubate the EP tubes containing peptides and enzymes at 37° C. for 5 min, and add 3 μL of […] solution to each EP tube containing peptides and mix well. Start timing and extract 25 μL of reaction solution at 1.5, 3.0, 4.5, 6.0 and 9.0 min later, respectively. Add 3.75 μL of 10% TFA to terminate the reaction and mix well by centrifugation at 8000 rpm for 30 seconds.
Arrange a certain volume of 0.05 μg/μL chymotrypsin solution in another sterile EP. Incubate the EP tubes containing peptides and enzymes at 37° C. for 5 min, and then add 4.5 μL of chymotrypsin solution to each EP tube containing peptides and mix well. Start timing and extract 25 μL of reaction solution at 1.5, 3.0, 4.5, 6.0, 9.0, 15.0, 30.0, and 60.0 min later, respectively. Add 3.75 μL of 10% TFA to terminate the reaction and mix well by centrifugation at 8000 rpm for 30 seconds.
Referring to the experimental method in Example 5, in vitro stability of salmon Calcitonin analogs with oral administration activity to the enzymatic hydrolysis by trypsin, chymotrypsin and elastase were performed.
Referring to the experimental method in Example 5, in vitro stability of IL-17A inhibitory peptides towards the enzymatic hydrolysis by trypsin, chymotrypsin and elastase were performed.

[1] = Stability of GLP-1 and its analogues in human serum; settings: 25% (v/v) human serum
[2] = target: porcine pancreatic elastase (Sus scrofa, UniProt P00772); test: Elastase inhibitory activity of peptides (AAApNA hydrolysis; IC50, Ki, residual activity); assay type: biochemical; settings: for IC50: elastase 0.5 μM, AAApNA 1 mM; for Ki: read-out: Ki
Method in brief: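 Porcine pancreatic elastase, 0.5 μM final, was preincubated with peptide for 10 min at 37° C in 20 mM CaCl2, 50 mM Tris-HCl pH 8.0. AAApNA (1 mM final) was then added for 60 min and A405 read. Residual activity gave IC50, converted to Ki via IC50/(1+S/Km) using measured Km.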

DPP-IV, sequence (P27487 whole entry, species assumed): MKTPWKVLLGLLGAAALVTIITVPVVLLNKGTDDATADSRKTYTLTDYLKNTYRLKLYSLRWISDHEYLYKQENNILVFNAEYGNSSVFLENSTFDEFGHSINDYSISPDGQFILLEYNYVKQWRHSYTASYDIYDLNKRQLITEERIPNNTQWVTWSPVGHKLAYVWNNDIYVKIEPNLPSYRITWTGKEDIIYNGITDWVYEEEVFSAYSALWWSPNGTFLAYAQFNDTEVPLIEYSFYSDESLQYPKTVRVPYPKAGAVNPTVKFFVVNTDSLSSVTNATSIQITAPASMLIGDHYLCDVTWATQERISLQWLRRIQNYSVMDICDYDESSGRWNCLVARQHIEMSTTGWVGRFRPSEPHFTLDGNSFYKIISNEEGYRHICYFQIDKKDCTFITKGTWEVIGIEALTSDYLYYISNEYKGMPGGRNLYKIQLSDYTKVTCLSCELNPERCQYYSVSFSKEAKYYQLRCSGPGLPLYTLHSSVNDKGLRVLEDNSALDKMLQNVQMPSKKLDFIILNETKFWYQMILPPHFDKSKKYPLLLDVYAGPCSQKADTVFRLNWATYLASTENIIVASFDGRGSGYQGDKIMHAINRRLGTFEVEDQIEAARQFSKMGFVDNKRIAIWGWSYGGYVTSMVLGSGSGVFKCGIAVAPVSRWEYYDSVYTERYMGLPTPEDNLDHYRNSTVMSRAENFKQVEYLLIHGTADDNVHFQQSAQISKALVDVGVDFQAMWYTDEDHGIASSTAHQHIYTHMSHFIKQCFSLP
porcine pancreatic elastase, sequence (P00772 27-266): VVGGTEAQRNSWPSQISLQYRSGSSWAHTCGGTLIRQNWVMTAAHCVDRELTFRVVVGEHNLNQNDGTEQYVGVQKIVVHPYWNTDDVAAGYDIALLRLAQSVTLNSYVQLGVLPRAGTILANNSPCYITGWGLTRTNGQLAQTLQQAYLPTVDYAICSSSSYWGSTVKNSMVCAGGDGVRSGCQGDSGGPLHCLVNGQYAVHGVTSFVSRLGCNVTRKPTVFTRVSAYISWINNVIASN

SMILES: CC[C@H](C)[C@H](NC(=O)[C@H](Cc1ccccc1)NC(=O)[C@H](CCC(=O)O)NC(=O)[C@H](CCCCN)NC(=O)[C@H](C)NC(=O)[C@H](C)NC(=O)[C@H](CCC(N)=O)NC(=O)CNC(=O)[C@H](CCC(=O)O)NC(=O)[C@H](CC(C)C)NC(=O)[C@H](Cc1ccc(O)cc1)NC(=O)[C@H](CO)NC(=O)[C@H](CO)NC(=O)[C@@H](NC(=O)[C@H](CC(=O)O)NC(=O)[C@H](CO)NC(=O)[C@@H](NC(=O)[C@H](Cc1ccccc1)NC(=O)[C@@H](NC(=O)CNC(=O)[C@H](CCC(=O)O)NC(=O)[C@H](C)NC(=O)[C@H](Cc1c[nH]cn1)NC(=O)CNC(=O)CNC(=O)[C@@H](NC(=O)[C@@H]1CCCN1C(=O)[C@@H](NC(=O)CNC(=O)CNC(=O)[C@H](Cc1ccc(O)cc1)NC(=O)[C@@H]1CSSC[C@H](NC(=O)[C@@H](N)CO)C(=O)N[C@@H]([C@@H](C)O)C(=O)N[C@@H](Cc2ccc(O)cc2)C(=O)N[C@@H](CO)C(=O)N[C@@H]([C@@H](C)CC)C(=O)N2CCC[C@H]2C(=O)N2CCC[C@H]2C(=O)N[C@@H](CCC(N)=O)C(=O)N1)[C@@H](C)CC)[C@@H](C)CC)[C@@H](C)O)[C@@H](C)O)C(C)C)C(=O)N[C@@H](C)C(=O)N[C@@H](Cc1c[nH]c2ccccc12)C(=O)N[C@@H](CC(C)C)C(=O)N[C@H](C(=O)N[C@@H](CCCCN)C(=O)NCC(=O)N[C@@H](CCCNC(=N)N)C(=O)NCC(=O)NCC(=O)N[C@@H](CCCCN)C(=O)O)C(C)C [CH4-D-GLP-1]
Remaining peak area (%)/DPP-IV (DPP-IV; 0.0 h): 100.0 ± 0.0% | remaining at 0.5 h, 25 μM (DPP-IV; isolated DPP-IV enzyme in buffer, pH 8, 0.5 h): 88.5 ± 0.7% | remaining at 2 h, 25 μM (DPP-IV; isolated DPP-IV enzyme in buffer, pH 8, 2.0 h): 90 ± 0.9% | remaining at 4 h, 25 μM (DPP-IV; isolated DPP-IV enzyme in buffer, pH 8, 4.0 h): 92.4 ± 0.5% | remaining at 8 h, 25 μM (DPP-IV; isolated DPP-IV enzyme in buffer, pH 8, 8.0 h): 85.1 ± 0.9% | remaining at 12 h, 25 μM (DPP-IV; isolated DPP-IV enzyme in buffer, pH 8, 12.0 h): 88.6 ± 3.7% | remaining at 0.025 h, 60 μM (chymotrypsin): 84.9 ± 1.6% | remaining at 0.05 h, 60 μM (chymotrypsin): 89.6 ± 4.2% | remaining at 0.075 h, 60 μM (chymotrypsin): 83.6 ± 0.5% | remaining at 0.1 h, 60 μM (chymotrypsin): 86.2 ± 0.7% | remaining at 0.15 h, 60 μM (chymotrypsin): 81.1 ± 4.7% | remaining at 0.25 h, 60 μM (chymotrypsin): 83.3 ± 1.4% | remaining at 0.5 h, 60 μM (chymotrypsin): 84.5 ± 3.7% | remaining at 1 h, 60 μM (chymotrypsin): 78.6 ± 2% | Remaining peak area (%)/human serum ([1]; 0.0 h, peptide 0.03 mM, 37° C.): 100.0 ± 0.0% | remaining at 0.5 h, 0.03 mM ([1]; human, pH 7): 72.3 ± 0.5% | remaining at 2 h, 0.03 mM ([1]; human, pH 7): 34 ± 0.2% | remaining at 4 h, 0.03 mM ([1]; human, pH 7): 16.6 ± 0.8% | remaining at 8 h, 0.03 mM ([1]; human, pH 7): 4.4 ± 0.2% | remaining at 12 h, 0.03 mM ([1]; human, pH 7): 1.8 ± 0.1%

SMILES: CC[C@H](C)[C@@H]1NC(=O)CNC(=O)[C@@H](N)CSSC[C@@H](C(=O)N[C@@H](CCC(N)=O)C(=O)O)NC(=O)[C@H]([C@@H](C)CC)NC(=O)[C@@H]2CCCN2C(=O)[C@@H]2CCCN2C(=O)[C@H]([C@@H](C)CC)NC(=O)[C@H](CO)NC(=O)[C@H](C)NC(=O)[C@H]([C@@H](C)O)NC(=O)[C@H](Cc2c[nH]cn2)NC1=O [EC40] (H-CGIHTASIPPICQ-OH; disulfide 1-12)
IC50 [2]: > 50000 nM

SMILES: CC[C@H](C)[C@@H]1NC(=O)[C@H](CO)NC(=O)[C@H](C)NC(=O)[C@H]([C@@H](C)O)NC(=O)[C@@H](NC(=O)[C@H](CC(C)C)NC(=O)CNC(=O)CNC(=O)[C@@H](NC(=O)[C@@H]2CCCN2C(=O)[C@@H]2CCCN2C(=O)[C@@H](NC(=O)[C@H](CC(=O)O)NC(=O)[C@H](C)NC(=O)CNC(=O)[C@@H](N)CCC(N)=O)[C@@H](C)O)C(C)C)CSSC[C@@H](C(=O)N[C@@H](Cc2ccc(O)cc2)C(=O)O)NC(=O)[C@H](CCC(N)=O)NC(=O)[C@@H]2CCCN2C(=O)[C@@H]2CCCN2C1=O [EC49] (H-QGADTPPVGGLCTASIPPQCY-OH; disulfide 12-20; N-terminus and C-terminus assumed)
Ki [2]: 280 nM

SMILES: CC[C@H](C)[C@@H]1NC(=O)[C@H](CO)NC(=O)[C@H](C)NC(=O)[C@H]([C@@H](C)O)NC(=O)[C@@H](NC(=O)[C@H](CC(C)C)NC(=O)CNC(=O)CNC(=O)[C@H](CC(=O)O)NC(=O)[C@H](CCC(=O)O)NC(=O)[C@@H](NC(=O)[C@H](C)NC(=O)[C@H](CC(N)=O)NC(=O)CNC(=O)[C@H](CC(N)=O)NC(=O)[C@@H](N)CO)C(C)C)CSSC[C@@H](C(=O)N[C@@H](Cc2ccc(O)cc2)C(=O)O)NC(=O)[C@H](CCC(N)=O)NC(=O)[C@@H]2CCCN2C(=O)[C@@H]2CCCN2C1=O [EC50] (H-SNGNAVEDGGLCTASIPPQCY-OH; disulfide 12-20; N-terminus and C-terminus assumed)
Ki [2]: 280 nM

The remaining lines, values ahead:

IC50 [2]: > 50000 nM
SMILES: CC[C@H](C)[C@@H]1NC(=O)CNC(=O)[C@@H](N)CSSC[C@@H](C(=O)N[C@@H](CCC(N)=O)C(=O)O)NC(=O)[C@H]([C@@H](C)CC)NC(=O)[C@@H]2CCCN2C(=O)[C@@H]2CCCN2C(=O)[C@H]([C@@H](C)CC)NC(=O)[C@H](CO)NC(=O)[C@H](C)NC(=O)[C@H]([C@@H](C)O)NC(=O)[C@H](CCC(N)=O)NC1=O [EC39] (H-CGIQTASIPPICQ-OH; disulfide 1-12)

IC50 [2]: > 50000 nM
SMILES: CC[C@H](C)[C@@H]1NC(=O)CNC(=O)[C@@H](N)CSSC[C@@H](C(=O)N[C@@H](CCC(N)=O)C(=O)O)NC(=O)[C@H]([C@@H](C)CC)NC(=O)[C@@H]2CCCN2C(=O)[C@@H]2CCCN2C(=O)[C@H]([C@@H](C)CC)NC(=O)[C@H](CO)NC(=O)[C@H](C)NC(=O)[C@H]([C@@H](C)O)NC(=O)[C@H](CCCCN)NC1=O [EC42] (H-CGIKTASIPPICQ-OH; disulfide 1-12)

IC50 [2]: > 50000 nM
SMILES: CC[C@H](C)[C@@H]1NC(=O)[C@@H]2CCCN2C(=O)[C@@H](N)CSSC[C@@H](C(=O)N[C@@H](CCC(N)=O)C(=O)O)NC(=O)[C@H]([C@@H](C)CC)NC(=O)[C@@H]2CCCN2C(=O)[C@@H]2CCCN2C(=O)[C@H]([C@@H](C)CC)NC(=O)[C@H](CO)NC(=O)[C@H](C)NC(=O)[C@H]([C@@H](C)O)NC(=O)[C@H](C)NC1=O [EC44] (H-CPIATASIPPICQ-OH; disulfide 1-12)

IC50 [2]: > 50000 nM
SMILES: CC[C@H](C)[C@@H]1NC(=O)[C@@H]2C[C@@H](O)CN2C(=O)[C@@H](N)CSSC[C@@H](C(=O)N[C@@H](CCC(N)=O)C(=O)O)NC(=O)[C@H]([C@@H](C)CC)NC(=O)[C@@H]2CCCN2C(=O)[C@@H]2CCCN2C(=O)[C@H]([C@@H](C)CC)NC(=O)[C@H](CO)NC(=O)[C@H](C)NC(=O)[C@H]([C@@H](C)O)NC(=O)[C@H](C)NC1=O [EC46] (H-C[Hyp]IATASIPPICQ-OH; disulfide 1-12)

IC50 [2]: 400 nM | Ki [2]: 110 nM
SMILES: CC[C@H](C)[C@H](N)C(=O)N[C@H]1CSSC[C@@H](C(=O)N[C@@H](CCC(N)=O)C(=O)O)NC(=O)[C@H]([C@@H](C)CC)NC(=O)[C@@H]2CCCN2C(=O)[C@@H]2C[C@@H](O)CN2C(=O)[C@H]([C@@H](C)CC)NC(=O)[C@H](CO)NC(=O)[C@H](C)NC(=O)[C@H]([C@@H](C)O)NC1=O [EC47, Ile-Cys-Thr-Ala-Ser-Ile-Hyp-Pro-Ile-Cys-Gln] (H-ICTASI[Hyp]PICQ-OH; disulfide 2-10; C-terminus assumed)
